According to patent US9463192B2, “Trk-inhibiting compound” (ONO PHARMACEUTICAL CO., LTD., priority 2013, dated 2016):
Read-outs that look alike come from different tables or passages of the source.

Experiments:
human TrkA = human TrkA (Homo sapiens (Human), UniProt P04629); assay: Measurement of TrkA kinase-inhibiting activity using human TrkA-expressing cells; format: cell-based; conditions: CHO-K1 cells expressing human TrkA and NFAT-bla; NGF 50 ng/ml; TR-FRET reporter
Experimental: TrkA kinase-inhibiting activity in cell systems was measured using CHO-K1 cells exressing human TrkA and NFAT-bla (CellSenser™ TrkA-NFAT-bla CHO-K1 cells, Invitrogen).
On the day before the assay, CellSenser™ TrkA-NFAT-bla CHO-K1 cells were suspended in an assay medium (Opti-MEM1 Reduced Serum Medium (Invitrogen) containing 0.5% dialysed fetal bovine serum (Invitrogen), 0.1 mM nonessential amino acids (Invitrogen), 1 mM sodium pyruvate (Invitrogen) and antibiotics (100 U/mL penicillin and 100 µg/mL streptomycin (Invitrogen))) and plated at a density of 2.4×10^4 cells/40 μL/well in a 96-well clear bottom plate (Corning, Catalogue No.: 3882). In some wells were added only the assay medium at 40 μL/well (Cell-free). On the day of the assay, 10 mM of the present compound (DMSO solution) was distributed in a 96-well plate (Costar, Catalogue No.: 3363) and serially diluted with DMSO with the geometrical ratio of 3. The serial dilutions were diluted with the assay medium to 100-fold to prepare a solution of the present compound with a 10-fold concentration (DMSO concentration: 1%). To the plate where cells were plated was added the present compound at 5 µL/well and the plate was incubated in a CO2 incubator with 5% CO2, 95% Air at 37° C. for 30 minutes. For a control and a blank, the assay medium containing 1% DMSO was added at 5 µL/well in place of the solution of the present compound. Subsequently the assay medium containing NGF (Mouse 2.5s, Natural, Invitrogen) was added to the plate at 5 µL/well (final concentration of NGF: 50 ng/ml) and the plate was incubated in a CO2 incubator with 5% CO2, 95% Air at 37° C. for 5 hours. For the blank group, the assay medium was added in place of NGF at 5 µL/well. A reporter assay detection reagent ([…]) was added to the plate which was then incubated in the dark at room temperature for 120 minutes. The reporter assay detection reagent was prepared from LiveBLAzer™-FRET B/G Loading Kit (Invitrogen). On the Analyst GT (Molecular Devices Japan, K.K.) the wells were irradiated with excitation light at 405 nm and the fluorescence intensities at 460 nm and 530 nm were measured. The time resolved fluorescence resonance energy transfer (TR-FRET) ratio of each well was calculated according to the following Equation 1: TR-FRET ratio=(A460x−A460F)/(A530x−A530F) [Eq. 1]
A460x: the fluorescence intensity at 460 nm of the present compound, control or blank;
A460F: the fluorescence intensity at 460 nm of the Cell-free;
A530x: the fluorescence intensity at 530 nm of the present compound, control or blank; and
A530x: the fluorescence intensity at 530 nm of the Cell-free.
The TR-FRET inhibition rate (%) of the present compound was calculated according to the following Equation 2: Inhibition rate (%)={1−(AX−AB)/(AC−AB)}×100 [Eq. 2]
wherein AX: the TR-FRET ratio when the present compound is added;
AB: the TR-FRET of the blank; and
AC: the TR-FRET of the control.
The IC50 value by the present compound was calculated from the inhibition curve based on the inhibition rate of the present compound at respective concentrations.

[1] = system: NGF-induced vascular hyper permeability; assay: Inhibition of rat NGF-induced vascular hyper permeability; format: in vivo; conditions: po, 1 mg/kg orally, read-out: Inhibition rate of vascular hyper permeability (%) (time after administration (h))
Experimental: TrkA-inhibiting activity of the present compound was evaluted in vivo. The present compound dissolved in a medium was orally administered (adminstered volume: 5 mL/kg) to male CD(SD)IGS rats (7- to 9-week old, Charles River laboratories Japan, Inc.) shaved on the back. A medium was orally administered (adminstered volume: 5 mL/kg) to the control and normal groups. After 6, 12 or 14 hours of administration, 3 μg/mL of a NGF (Mouse 2.5s, Natural, Invitrogen) solution prepared in 0.1% BSA (Sigma-Aldrich)-containing saline was intracutaneously administered (dose; 50 μL/site) at 3 sites on the back of animals under halothane anesthesia. For the normal group, 0.1% BSA-containing saline was intracutaneously administered (dose; […]) at 3 sites on the back. Immediately after intracutaneous administration, 1% Evans Blue (Tokyo Chemical Industriy Co., Ltd.) was administered intravenously from tail (adminstered volume: 3 mL/kg). After 10 minutes of administration, the animals were sacrificed by bleeding due to incision of the abdominal aorta. The sites of intracutaneous administration on the back (3 sites) were excised and the skin samples were respectively transferred to the wells in a 48-well plate (Asahi Glass Co., Ltd.). Formamide (0.8 mL/well) was added to the plate and the plate was sealed and incubated overnight at 60° C. The formamide extraction solution (200 μL) was transferred to a 96-well plate and the absorbance (wavelength: 620 nm) of Evans Blue extracted in formamide was measured on an absorbance microplate reader (SpectraMAX 190, Molecular Devices Japan, K.K.). Standard samples of Evans Blue dissolved in formamide (0, 0.78, 1.56, 3.13, 6.25, 12.5, 25 and 50 µg/mL) were measured at the same time for the absorance (wavelength: 620 nm) to generate a calibration curve. Based on the calibration curve and the absorbances of samples, the concentrations of Evans Blue in the sample was calculated. The concentrations of Evans Blue for three skin samples collected from one aminal were averaged to obtain the vale for the animal. The rate of inhibition for rat NGF-induced vascular hyper permeability of the present compound was calculated according to the following Equation: Inhibition rate (%)={1−(AX−AN)/(AC−AN)}×100 [Eq. 3]
wherein AX: the concentration of Evans Blue of the test compound (an average value of 3 samples from one animal);
AN: the concentration of Evans Blue of the normal group (an average value of 3 samples from one animal);
AC: the concentration of Evans Blue of the control group (an average value of 3 samples from one animal).

human TrkA, sequence (P04629 33-796): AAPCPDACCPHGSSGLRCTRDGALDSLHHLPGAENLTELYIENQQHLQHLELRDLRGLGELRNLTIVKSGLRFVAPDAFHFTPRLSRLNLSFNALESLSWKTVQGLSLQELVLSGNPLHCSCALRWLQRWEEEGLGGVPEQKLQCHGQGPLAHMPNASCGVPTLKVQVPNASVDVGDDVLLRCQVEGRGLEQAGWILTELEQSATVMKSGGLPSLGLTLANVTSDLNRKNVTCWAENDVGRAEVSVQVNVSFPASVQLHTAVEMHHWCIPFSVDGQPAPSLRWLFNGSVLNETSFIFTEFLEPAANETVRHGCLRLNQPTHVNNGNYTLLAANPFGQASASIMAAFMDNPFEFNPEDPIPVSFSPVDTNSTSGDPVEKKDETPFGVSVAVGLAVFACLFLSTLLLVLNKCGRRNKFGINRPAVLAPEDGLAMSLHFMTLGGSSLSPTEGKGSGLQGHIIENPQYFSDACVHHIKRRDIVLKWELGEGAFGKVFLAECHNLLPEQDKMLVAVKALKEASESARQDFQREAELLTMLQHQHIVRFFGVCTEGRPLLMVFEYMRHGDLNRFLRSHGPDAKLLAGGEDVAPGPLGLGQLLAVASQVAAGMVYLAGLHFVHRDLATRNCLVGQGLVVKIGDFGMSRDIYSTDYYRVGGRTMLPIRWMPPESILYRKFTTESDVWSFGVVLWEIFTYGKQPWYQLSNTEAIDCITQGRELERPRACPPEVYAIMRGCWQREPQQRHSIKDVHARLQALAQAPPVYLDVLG

| SMILES | IC50 (human TrkA) [µM] | inhibition in vivo at 1 mg/kg ([1]; 14 h after administration) [%] | inhibition in vivo at 1 mg/kg ([1]; 12 h after administration) [%] |
| --- | --- | --- | --- |
| Nc1ncc(Cl)cc1-c1ccc(Oc2ncc(NC(=O)Nc3cc(C(F)(F)F)ccc3-n3cccn3)cn2)cc1 [Example 7, 1-(2-(1H-pyrazol-1-yl)-5-(trifluoromethyl)phenyl)-3-(2-(4-(2-amino-5-chloropyridin-3-yl)phenoxy)pyrimidin-5-yl)urea] | 0.001 | 97 | – |
| Cc1cn(-c2ccc(C(F)(F)F)cc2NC(=O)Nc2cnc(Oc3ccc(-c4cc(Cl)cnc4N)cc3)nc2)nn1 [Example 8-1, 1-(2-(4-(2-amino-5-chloropyridin-3-yl)phenoxy)pyrimidin-5-yl)-3-(2-(4-methyl-1H-1,2,3-triazol-1-yl)-5-(trifluoromethyl)phenyl)urea] | 0.001 | 94 | – |
| Nc1ncc(Cl)cc1-c1ccc(Oc2ncc(NC(=O)Nc3cc(C(F)(F)F)ccc3-n3ccc(C(F)(F)F)n3)cn2)cc1 [Example 8-2, 1-(2-(4-(2-amino-5-chloropyridin-3-yl)phenoxy)pyrimidin-5-yl)-3-(5-(trifluoromethyl)-2-(3-(trifluoromethyl)-1H-pyrazol-1-yl)phenyl)urea] | 0.002 | 100 | – |
| Nc1ncc(Cl)cc1-c1ccc(Oc2ncc(NC(=O)Nc3cc(C(F)(F)F)ccc3Cl)cn2)cc1 [Example 8-4, 1-(2-(4-(2-amino-5-chloropyridin-3-yl)phenoxy)pyrimidin-5-yl)-3-(2-chloro-5-(trifluoromethyl)phenyl)urea] | 0.001 | 96 | – |
| Nc1ncc(Cl)cc1-c1ccc(Oc2ccc(NC(=O)Nc3cc(C(F)(F)F)ccc3-n3cccn3)cn2)cc1 [Example 9-1] | 0.003 | 86 | – |
| Nc1ncc(Cl)cc1-c1ccc(Oc2ccc(NC(=O)Nc3cc(C(F)(F)F)ccc3-n3ccnn3)cn2)cc1 [Example 9-2] | 0.001 | 100 | – |
| Nc1ncc(Cl)cc1-c1ccc(Oc2ccc(NC(=O)Nc3cc(C(F)(F)F)ccc3-c3cccnc3)cn2)cc1 [Example 11, 1-(6-(4-(2-amino-5-chloropyridin-3-yl)phenoxy)pyridin-3-yl)-3-(2-(pyridin-3-yl)-5-(trifluoromethyl)phenyl)urea] | 0.001 | 100 | – |
| Cn1nccc1-c1ccc(C(F)(F)F)cc1NC(=O)Nc1cnc(Oc2ccc(-c3cc(Cl)cnc3N)cc2)nc1 [Example 13-1, 1-(2-(4-(2-amino-5-chloropyridin-3-yl)phenoxy)pyrimidin-5-yl)-3-(2-(1-methyl-1H-pyrazol-5-yl)-5-(trifluoromethyl)phenyl)urea] | 0.002 | 100 | – |
| Nc1ncc(F)cc1-c1ccc(Oc2ncc(NC(=O)Nc3cc(C(F)(F)F)ccc3-n3ccnn3)cn2)cc1 [Example 14-5, 1-(2-(1H-1,2,3-triazol-1-yl)-5-(trifluoromethyl)phenyl)-3-(2-(4-(2-amino-5-fluoropyridin-3-yl)phenoxy)pyrimidin-5-yl)urea] | 0.001 | 93 | – |
| Nc1ncc(F)cc1-c1ccc(Oc2ncc(NC(=O)Nc3cc(C(F)(F)F)ccc3-c3cccnc3)cn2)cc1 [Example 14-6, 1-(2-(4-(2-amino-5-fluoropyridin-3-yl)phenoxy)pyrimidin-5-yl)-3-(2-(pyridin-3-yl)-5-(trifluoromethyl)phenyl)urea] | 0.001 | – | 78 |
| Nc1ncc(Cl)cc1-c1ccc(Oc2ncc(NC(=O)Nc3ccc(C(F)(F)F)cc3-n3cccn3)cn2)cc1 [Example 15-4, 1-(2-(1H-pyrazol-1-yl)-4-(trifluoromethyl)phenyl)-3-(2-(4-(2-amino-5-chloropyridin-3-yl)phenoxy)pyrimidin-5-yl)urea] | 0.001 | 100 | – |
| Nc1ncc(Cl)cc1-c1ccc(Oc2ncc(NC(=O)Nc3ccc(C(F)(F)F)cc3F)cn2)cc1 [Example 15-5, 1-(2-(4-(2-amino-5-chloropyridin-3-yl)phenoxy)pyrimidin-5-yl)-3-(2-fluoro-4-(trifluoromethyl)phenyl)urea] | 0.003 | 92 | – |
| Nc1ncc(Cl)cc1-c1ccc(Oc2ncc(NC(=O)Nc3ccc(C(F)(F)F)cc3Cl)cn2)cc1 [Example 15-6, 1-(2-(4-(2-amino-5-chloropyridin-3-yl)phenoxy)pyrimidin-5-yl)-3-(2-chloro-4-(trifluoromethyl)phenyl)urea] | 0.002 | 95 | – |
| O=C(Nc1cnc(Oc2ccc(-c3cnc4ccccn34)cc2)nc1)Nc1cc(C(F)(F)F)ccc1-n1cccn1 [Example 23-3, 1-(2-(1H-pyrazol-1-yl)-5-(trifluoromethyl)phenyl)-3-(2-(4-(imidazo[1,2-a]pyridin-3-yl)phenoxy)pyrimidin-5-yl)urea] | 0.001 | – | – |
| O=C(Nc1cnc(Oc2ccc(-c3cnc4[nH]ccc4c3)cc2)nc1)Nc1cc(C(F)(F)F)ccc1-c1cccnc1 [Example 23-7, 1-(2-(4-(1H-pyrrolo[2,3-b]pyridin-5-yl)phenoxy)pyrimidin-5-yl)-3-(2-(pyridin-3-yl)-5-(trifluoromethyl)phenyl)urea] | 0.002 | – | – |
| O=C(Nc1cnc(Oc2ccc(-c3cnc4cnccn34)cc2)nc1)Nc1cc(C(F)(F)F)ccc1-c1cccnc1 [Example 23-10, 1-(2-(4-(imidazo[1,2-a]pyrazin-3-yl)phenoxy)pyrimidin-5-yl)-3-(2-(pyridin-3-yl)-5-(trifluoromethyl)phenyl)urea] | 0.001 | – | – |
| O=C(Nc1cnc(Oc2ccc(-c3cnn4ccccc34)cc2)nc1)Nc1cc(C(F)(F)F)ccc1-c1cccnc1 [Example 23-11, 1-(2-(4-(pyrazolo[1,5-a]pyridin-3-yl)phenoxy)pyrimidin-5-yl)-3-(2-(pyridin-3-yl)-5-(trifluoromethyl)phenyl)urea] | 0.001 | – | – |
| O=C(Nc1cnc(Oc2ccc(-c3cnc4[nH]ncc4c3)cc2)nc1)Nc1cc(C(F)(F)F)ccc1-c1cccnc1 [Example 23-12, 1-(2-(4-(1H-pyrazolo[3,4-b]pyridin-5-yl)phenoxy)pyrimidin-5-yl)-3-(2-(pyridin-3-yl)-5-(trifluoromethyl)phenyl)urea] | 0.001 | – | – |
